Source: US7396554B2, “Antioxidant sesame extract” (Council of Scientific & Industrial Research, priority 2002, dated 2008)

Columns and labels:
rats = conditions: Nobuyuki Ito 1982, cited via U.S. Pat. No. 5,043,100; cited from earlier work
[1] = DPPH radical quenching / free radical scavenging test; type: biochemical; conditions: Conc. of antioxidant 20 μM
Method: The radical quenching efficiency of the extract was also tested by widely reported standard methods like di-phenyl picryl hydrazyl (DPPH) radical according to the methods of W. Brand Williams, M. E. Cuvelier and C. Berset, Lebesm.-Wiss.

[2] = DSC oxidative stability of soybean oil, isothermal 150° C. under oxygen flow; conditions: soybean oil stored one week at 60° C.; antioxidant 200 mg per Kg of oil
Text: DSC experiments: Differential Scanning Calorimeter. The Mettler Toledo instrument used for carrying out the studies, is configured to follow oxidative stability of vegetable oils at a desired higher temperature under oxygen flow. […] With the help of an inbuilt program of the instrument, the induction period in ‘time-units’ could be calculated. This is indicated in the diagram as ‘onset’ time. Longer ‘onset’ time indicates better protection. […] DSC profiles of purified sesame extracts have been included here. In FIG. 6, the oxidative stability of soybean oil stored at 60° C. for 7 days has been depicted. (The storage study continued for one month. The extent of protection as measured in DSC was studied here.). Each experiment such as Control alone, (soybean oil+BHT), (oil+TBHQ), (oil+Sesame extract at 10 ppm, 50 ppm, 200 ppm) etc were carried out separately. For comparison sake, the different profiles have been overlaid in the same figure. In FIG. 6, the concentrations of BHT and TBHQ are 200 mg per Kg. of oil. For comparison, the profile of oil containing sesame extract at 50 ppm is also depicted in the overlaid diagram. […]

[3] = DSC oxidative stability of safflower oil, isothermal 150° C. under oxygen flow; conditions: fresh safflower oil; antioxidant 200 mg per Kg of oil
Text: DSC experiments: Differential Scanning Calorimeter. The Mettler Toledo instrument used for carrying out the studies, is configured to follow oxidative stability of vegetable oils at a desired higher temperature under oxygen flow. […] With the help of an inbuilt program of the instrument, the induction period in ‘time-units’ could be calculated. This is indicated in the diagram as ‘onset’ time. Longer ‘onset’ time indicates better protection. […] DSC profiles of purified sesame extracts have been included here. As explained elsewhere, the Figure represents overlaid DSC profiles of safflower oil containing synthetic and sesame antioxidants at few select concentrations. The onset time has been recorded in the printout of the profile. The oxidative stability of vegetable oils containing synthetic antioxidants (BHT and TBHQ at 50-200 ppm) and sesame extract at different levels 3 to 1000 ppm were also tested in the Differential Scanning Calorimeter (Mettler Toledo, model 821) under flow of oxygen (40 ml/min.). The heating regime followed was isothermal at 150° C. and from the curves obtained (FIGS. 6, 7), the ‘onset-time’ of oxidative changes under identical conditions could be found out by making use of an inbuilt program of the instrument, the induction period represented by the onset time, can be correlated with the onset of rancidity.

Row | Molecule | carcinogenicity (rats) | Free radical Scavenging Effect after 30 min. [1] | DSC onset time [2] [min] | DSC onset time [3] [min]
1 | COc1ccc(O)c(C(C)(C)C)c1 [BHA, Butylated Hydroxy Anisole] | carcinogenic in rats |  |  | 
2 | Cc1cc(C(C)(C)C)c(O)c(C(C)(C)C)c1 [BHT, Butylated Hydroxy Toluene] |  | 81.61 | 7.30 | 7.23
3 | CC(C)(C)c1cc(O)ccc1O [TBHQ, tert-Butyl Hydro Quinone] |  | 98.88 | 20.48 | 10.01
4 | O=C(OC[C@H]1O[C@@H](OC(=O)c2cc(O)c(O)c(OC(=O)c3cc(O)c(O)c(O)c3)c2)[C@H](OC(=O)c2cc(O)c(O)c(OC(=O)c3cc(O)c(O)c(O)c3)c2)[C@@H](OC(=O)c2cc(O)c(O)c(OC(=O)c3cc(O)c(O)c(O)c3)c2)[C@@H]1OC(=O)c1cc(O)c(O)c(OC(=O)c2cc(O)c(O)c(O)c2)c1)c1cc(O)c(O)c(OC(=O)c2cc(O)c(O)c(O)c2)c1 [Tannic Acid] |  | 98.88 |  | 
5 | Catechin |  | 98.51 |  | 
